Row | melting point [°C] | SMILES
1 | 162 to 164 | O=C(Nc1ccccc1)Nc1cc(C2CC2)n[nH]1 [Example 1, N-(3-cyclopropyl-1H-pyrazol-5-yl)-N′-phenylurea]
2 | 177 to 179 | O=C(NCc1ccc(Cl)cc1Cl)Nc1cc(C2CC2)n[nH]1 [Example 2, N-(3-cyclopropyl-1H-pyrazol-5-yl)-N′-(2,4-dichlorobenzyl)urea]
